Assay: HPLC assay on storage of sildenafil citrate with equal concentration of sucralose in pH adjusted 50% ethanol (Example 2)
Format: physicochemical
Procedure: At room temperature, a phosphate buffer was prepared by weighing 3.9 g of NaH2PO4.2H2O into a 500 mL volumetric flask and adding approximately 300 mL of purified water until the phosphate fully dissolved. The pH was then adjusted to 7 with the introduction of NaOH and dilute to the requisite volume by the further addition of purified water.
A 50% ethanol mixture was prepared by introducing either purified water, taken from a MilliQ™ unit or phosphate buffer, to equivalent volumes of Ph.Eur. grade absolute alcohol. The pH of the resultant mixture was then adjusted by using either NaOH 1N solutions and/or Sodium Citrate 1N solutions to reach predetermined pH values.
Samples of sucralose were then dissolved in the pH adjusted 50% ethanol, whilst stirred with a magnetic stirrer and a needle, to a predetermined concentration. […] After preparation, the solutions were each filtered through PDVF 0.22 micro filter of 13 mm in size and placed in polypropylene containers of adequate volume.
Before being placed on storage, and at time points 7 and 42 days, the concentration of sildenafil in the mixture was assayed using HPLC. The samples were then stored at either −20° C., 2-8° C. or 25° C. for periods of up to 42 days. Periodically, the samples were visually inspected for evidence of precipitation or crystallization. […]
The samples of 21 mg/ml at a pH of 5.6 were maintained in stability testing at 25° C. for a total of 285 days.

SMILES: CCCc1nn(C)c2c(=O)nc(-c3cc(S(=O)(=O)N4CCN(C)CC4)ccc3OCC)[nH]c12.O=C(O)CC(O)(CC(=O)O)C(=O)O [sildenafil citrate, 1-[[3-(4,7-Dihydro-1-methyl-7-oxo-3-propyl-1H-pyrazolo[4,3-d]pyrimidin-5-yl)-4-ethoxyphenyl]sulfonyl]-4-methylpiperazine citrate salt]
- concentration of sildenafil by HPLC (15 mg/ml, pH 5.0, Sodium Citrate, 2-8 ° C., Day 7): 11050 µg/mL
- concentration of sildenafil by HPLC (15 mg/ml, pH 5.0, Sodium Citrate, 25 ° C., Day 7): 14890 µg/mL
- concentration of sildenafil by HPLC (15 mg/ml, pH 5.0, Sodium Citrate, Day 0): 15220 µg/mL
- concentration of sildenafil by HPLC (15 mg/ml, pH 5.2, NaOH, 2-8 ° C., Day 7): 14990 µg/mL
- concentration of sildenafil by HPLC (15 mg/ml, pH 5.2, NaOH, 25 ° C., Day 7): 15010 µg/mL
- concentration of sildenafil by HPLC (15 mg/ml, pH 5.2, NaOH, Day 0): 15050 µg/mL
- concentration of sildenafil by HPLC (15 mg/ml, pH 5.24, NaOH, 50% ethanol/phosphate buffer, 2-8 ° C., Day 7): 14970 µg/mL
- concentration of sildenafil by HPLC (15 mg/ml, pH 5.24, NaOH, 50% ethanol/phosphate buffer, 25 ° C., Day 7): 15010 µg/mL
- concentration of sildenafil by HPLC (15 mg/ml, pH 5.24, NaOH, 50% ethanol/phosphate buffer, Day 0): 15060 µg/mL
- concentration of sildenafil by HPLC (15 mg/ml, pH 5.6, NaOH, 2-8 ° C., Day 7): 15030 µg/mL
- concentration of sildenafil by HPLC (15 mg/ml, pH 5.6, NaOH, 2-8 ° C., Day 42): 15050 µg/mL
- concentration of sildenafil by HPLC (15 mg/ml, pH 5.6, NaOH, 25 ° C., Day 7): 14930 µg/mL
- concentration of sildenafil by HPLC (15 mg/ml, pH 5.6, NaOH, 25 ° C., Day 42): 14970 µg/mL
- concentration of sildenafil by HPLC (15 mg/ml, pH 5.6, NaOH, 50% ethanol/phosphate buffer, 2-8 ° C., Day 7): 14920 µg/mL
- concentration of sildenafil by HPLC (15 mg/ml, pH 5.6, NaOH, 50% ethanol/phosphate buffer, 25 ° C., Day 7): 14940 µg/mL
- concentration of sildenafil by HPLC (15 mg/ml, pH 5.6, NaOH, 50% ethanol/phosphate buffer, Day 0): 14960 µg/mL
- concentration of sildenafil by HPLC (15 mg/ml, pH 5.6, NaOH, Day 0): 15140 µg/mL
- concentration of sildenafil by HPLC (15 mg/ml, pH 5.6, Sodium Citrate, 2-8 ° C., Day 7): 14800 µg/mL
- concentration of sildenafil by HPLC (15 mg/ml, pH 5.6, Sodium Citrate, 2-8 ° C., Day 42): 15040 µg/mL
- concentration of sildenafil by HPLC (15 mg/ml, pH 5.6, Sodium Citrate, 25 ° C., Day 7): 14790 µg/mL
- concentration of sildenafil by HPLC (15 mg/ml, pH 5.6, Sodium Citrate, 25 ° C., Day 42): 14880 µg/mL
- concentration of sildenafil by HPLC (15 mg/ml, pH 5.6, Sodium Citrate, Day 0): 14920 µg/mL
- concentration of sildenafil by HPLC (15 mg/ml, pH 6.01, NaOH, 50% ethanol/phosphate buffer, 2-8 ° C., Day 7): 14690 µg/mL
- concentration of sildenafil by HPLC (15 mg/ml, pH 6.01, NaOH, 50% ethanol/phosphate buffer, 25 ° C., Day 7): 14830 µg/mL
- concentration of sildenafil by HPLC (15 mg/ml, pH 6.01, NaOH, 50% ethanol/phosphate buffer, Day 0): 14830 µg/mL
- concentration of sildenafil by HPLC (15 mg/ml, pH 6.2, NaOH, 2-8 ° C., Day 7): 10420 µg/mL
- concentration of sildenafil by HPLC (15 mg/ml, pH 6.2, NaOH, 25 ° C., Day 7): 11750 µg/mL
- concentration of sildenafil by HPLC (15 mg/ml, pH 6.2, NaOH, Day 0): 15140 µg/mL
- concentration of sildenafil by HPLC (15 mg/ml, pH 6.2, Sodium Citrate, 2-8 ° C., Day 7): 11110 µg/mL
- concentration of sildenafil by HPLC (15 mg/ml, pH 6.2, Sodium Citrate, 25 ° C., Day 7): 12100 µg/mL
- concentration of sildenafil by HPLC (15 mg/ml, pH 6.2, Sodium Citrate, Day 0): 14750 µg/mL
- concentration of sildenafil by HPLC (18 mg/ml, pH 5.2, NaOH, 2-8 ° C., Day 7): 17890 µg/mL
- concentration of sildenafil by HPLC (18 mg/ml, pH 5.2, NaOH, 25 ° C., Day 7): 17930 µg/mL
- concentration of sildenafil by HPLC (18 mg/ml, pH 5.2, NaOH, Day 0): 18230 µg/mL
- concentration of sildenafil by HPLC (18 mg/ml, pH 5.2, Sodium Citrate, Day 0): 18090 µg/mL
- concentration of sildenafil by HPLC (18 mg/ml, pH 5.3, NaOH, 50% ethanol/phosphate buffer, 2-8 ° C., Day 7): 18050 µg/mL
- concentration of sildenafil by HPLC (18 mg/ml, pH 5.3, NaOH, 50% ethanol/phosphate buffer, 25 ° C., Day 7): 18070 µg/mL
- concentration of sildenafil by HPLC (18 mg/ml, pH 5.3, NaOH, 50% ethanol/phosphate buffer, Day 0): 18070 µg/mL
- concentration of sildenafil by HPLC (18 mg/ml, pH 5.6, NaOH, 2-8 ° C., Day 7): 17860 µg/mL
- concentration of sildenafil by HPLC (18 mg/ml, pH 5.6, NaOH, 2-8 ° C., Day 42): 18070 µg/mL
- concentration of sildenafil by HPLC (18 mg/ml, pH 5.6, NaOH, 25 ° C., Day 7): 17860 µg/mL
- concentration of sildenafil by HPLC (18 mg/ml, pH 5.6, NaOH, 25 ° C., Day 42): 18070 µg/mL
- concentration of sildenafil by HPLC (18 mg/ml, pH 5.6, NaOH, Day 0): 18130 µg/mL
- concentration of sildenafil by HPLC (18 mg/ml, pH 5.6, Sodium Citrate, 2-8 ° C., Day 7): 17820 µg/mL
- concentration of sildenafil by HPLC (18 mg/ml, pH 5.6, Sodium Citrate, 2-8 ° C., Day 42): 17880 µg/mL
- concentration of sildenafil by HPLC (18 mg/ml, pH 5.6, Sodium Citrate, 25 ° C., Day 7): 17820 µg/mL
- concentration of sildenafil by HPLC (18 mg/ml, pH 5.6, Sodium Citrate, 25 ° C., Day 42): 17910 µg/mL
- concentration of sildenafil by HPLC (18 mg/ml, pH 5.6, Sodium Citrate, Day 0): 18190 µg/mL
- concentration of sildenafil by HPLC (18 mg/ml, pH 5.63, NaOH, 50% ethanol/phosphate buffer, 2-8 ° C., Day 7): 18010 µg/mL
- concentration of sildenafil by HPLC (18 mg/ml, pH 5.63, NaOH, 50% ethanol/phosphate buffer, 25 ° C., Day 7): 18040 µg/mL
- concentration of sildenafil by HPLC (18 mg/ml, pH 5.63, NaOH, 50% ethanol/phosphate buffer, Day 0): 18180 µg/mL
- concentration of sildenafil by HPLC (18 mg/ml, pH 6.0, Sodium Citrate, 2-8 ° C., Day 7): 14950 µg/mL
- concentration of sildenafil by HPLC (18 mg/ml, pH 6.0, Sodium Citrate, 25 ° C., Day 7): 15080 µg/mL
- concentration of sildenafil by HPLC (18 mg/ml, pH 6.0, Sodium Citrate, Day 0): 17760 µg/mL
- concentration of sildenafil by HPLC (21 mg/ml, pH 5.29, NaOH, 50% ethanol/phosphate buffer, 2-8 ° C., Day 7): 20970 µg/mL
- concentration of sildenafil by HPLC (21 mg/ml, pH 5.29, NaOH, 50% ethanol/phosphate buffer, 25 ° C., Day 7): 20980 µg/mL
- concentration of sildenafil by HPLC (21 mg/ml, pH 5.29, NaOH, 50% ethanol/phosphate buffer, Day 0): 20940 µg/mL
- concentration of sildenafil by HPLC (21 mg/ml, pH 5.5, NaOH, 2-8 ° C., Day 7): 20860 µg/mL
- concentration of sildenafil by HPLC (21 mg/ml, pH 5.5, NaOH, 25 ° C., Day 7): 20970 µg/mL
- concentration of sildenafil by HPLC (21 mg/ml, pH 5.5, NaOH, Day 0): 21110 µg/mL
- concentration of sildenafil by HPLC (21 mg/ml, pH 5.5, Sodium Citrate, 2-8 ° C., Day 7): 21140 µg/mL
- concentration of sildenafil by HPLC (21 mg/ml, pH 5.5, Sodium Citrate, 25 ° C., Day 7): 21220 µg/mL
- concentration of sildenafil by HPLC (21 mg/ml, pH 5.5, Sodium Citrate, Day 0): 21320 µg/mL
- concentration of sildenafil by HPLC (21 mg/ml, pH 5.6, NaOH, 2-8 ° C., Day 7): 21040 µg/mL
- concentration of sildenafil by HPLC (21 mg/ml, pH 5.6, NaOH, 2-8 ° C., Day 42): 21430 µg/mL
- concentration of sildenafil by HPLC (21 mg/ml, pH 5.6, NaOH, 25 ° C., Day 7): 21020 µg/mL
- concentration of sildenafil by HPLC (21 mg/ml, pH 5.6, NaOH, 25 ° C., Day 42): 21320 µg/mL

From patent US20220193081A1 (Ellamed IP & Services PTE. LTD., priority 2019, published 2022)
